According to US9718770B2, “Substituted thioureas as heat shock protein 70 inhibitors” (Institute of Pharmacology and Toxicology Academy of …, priority 2013, dated 2017):

Columns and labels:
[1] = molecular target: T1, Hsp70 ATPase (Homo sapiens, UniProt P0DMV8); test: Inhibition of Hsp70 ATPase activity (malachite green); format: biochemical; settings: 200 μM; repeated screening carried out twice; Hsp70/Hsp40, 1 mM ATP; read-out: Inhibitory rate (%) on activity of Hsp70 ATPase
T1 construct: made in house; host or cells: E. coli
T1 sequence (P0DMV8 2-641 limits assumed): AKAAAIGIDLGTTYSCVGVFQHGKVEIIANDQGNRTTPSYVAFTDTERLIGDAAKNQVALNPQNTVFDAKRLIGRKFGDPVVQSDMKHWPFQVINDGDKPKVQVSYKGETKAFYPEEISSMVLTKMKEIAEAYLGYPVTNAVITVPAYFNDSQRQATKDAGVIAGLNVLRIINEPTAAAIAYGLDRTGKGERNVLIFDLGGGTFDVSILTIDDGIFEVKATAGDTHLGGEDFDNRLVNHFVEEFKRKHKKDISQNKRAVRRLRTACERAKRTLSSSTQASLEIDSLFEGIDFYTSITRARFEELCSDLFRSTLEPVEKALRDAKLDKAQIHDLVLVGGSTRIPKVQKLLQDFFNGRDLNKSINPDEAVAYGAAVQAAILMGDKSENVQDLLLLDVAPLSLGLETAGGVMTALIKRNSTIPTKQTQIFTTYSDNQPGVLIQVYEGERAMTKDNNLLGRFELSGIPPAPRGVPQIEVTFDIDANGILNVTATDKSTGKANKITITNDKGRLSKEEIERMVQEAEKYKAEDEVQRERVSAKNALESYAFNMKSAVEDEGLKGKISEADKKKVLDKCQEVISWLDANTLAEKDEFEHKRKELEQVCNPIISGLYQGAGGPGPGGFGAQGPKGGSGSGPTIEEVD
Description: (1) Protein: Humanized Hsp70, Hsp40, expressed by E. coli.
(2) Sample to be tested: 26 compound solids with different colors and states. Positive drugs AZ (CAS:1054543-47-3) and VER 155008 (CAS: 1134156-31-2) were synthesized in the laboratory.
(4) ATPase Assay buffer: • 0.017% Triton X-100; • 100 mM Tris-HCl; • 20 mM KCl; • 6 mM MgCl2, pH 7.4.
1) 13.08 μl DnaK (0.15 mg/mL, 2.14 μM), 1.96 μl DnaJ (1 mg/mL, 25 μM) were dissolved in 7.96 μl Assay Buffer (0.017% Triton X-100, 100 mM Tris-HCl, 20 mM KCl, and 6 mM MgCl2, pH 7.4), and the resultant solution was added to each well of the 96 well plate;
2) to each well of the 96 well plate, 1 μL sample to be tested (5 mM) or DMSO (solvent) was added, and vortexed with a Vortex agitator for 10 min; and then standing at 37° C. for 30 min;
3) to each well, 1 μL 25 mM ATP was added, to trigger the enzymatic reaction; (in each well, the final reaction volume was 25 μL, the final concentration of DnaK was 1.12 μM, the final concentration of DnaJ was 1.96 μM, the final concentration of DMSO was 4%, the final concentration of Triton X-100 was 0.01%, the final concentration of ATP was 1 mM, and the final concentration of sample to be tested was 200 μM), the enzymatic reaction was carried out at 37° C. for 3 h;
4) 80 μL Malachite green staining solution was then added to each well, and was vortexed gently;
5) 10 μL of 34% citrate sodium was then added immediately, and vortexed gently, to stop the ATP hydrolysis not caused by ATPase;
6) the resultant mixture was mixed thoroughly at 37° C. for 15 min, and OD620 was measured.
The inhibitory rate of Hsp70 ATPase activity is calculated in accordance with the following formula: Inhibitory rate (%)=(DMSO well OD−Experimental well OD)/(DMSO well OD−Blank well OD)×100
Criteria for preliminary screening: during preliminary screening, an example compound is regarded as effective in inhibition as long as its inhibitory rate is above 20% for Hsp70 ATPase at 200 μM.

[2] = system: MDA-MB-361; test: CDI of example compounds and Lapatinib (ATPlite cell survival); format: cell-based; design: key: CDI = AB/(A×B); <1 synergistic; settings: compound 5 μM + Lapatinib 1 μM, 72 h; natural Lapatinib-resistant human breast cancer cells; CDI<1 synergistic
Description: (§1) Cells: (BT474 and SK-BR3 are Lapatinib-sensitive human breast cancer cell strains; BT/LapR and SK/LapR are secondary Lapatinib-resistant human breast cancer cell strains upon Lapatinib stimulation; MDA-MB-361 and MDA-MB-453 are natural Lapatinib-resistant human breast cancer cell strains. BT474, MDA-MB-361, SK-BR3 and MDA-MB-453 are from American Type Culture Collection (ATCC))
(§2) In a 100 mm culture dish full of adherent cells, digestion with 1 ml 0.25% pancreatin (GIBCO) was carried out at 37° C. for 5 min, and the reaction was stopped with 2 ml medium (containing 10% FBS, GIBCO). The cells were dispersed and collected. After cell count, the cells were diluted to a concentration of 1×10^5 cells/ml, and were seeded to a 96-well plate at 50 μl/well, 5000 cell/well, 60 wells in total, PBS instead of cells was added to the wells of the outmost circle, and the incubation was carried out at 37° C. for 24 h for adherence.
(§3) For the sample group, samples to be tested were diluted with DMSO to a final concentration of 5 μM; to control wells, the medium containing the same concentration of solvent corresponding to the compound was added, the concentrations of the compounds were identical in each well, 5 wells in parallel were set for each concentration, 25 μL/well, and 25 μL medium was added to each well (for the combination group, 25 μL Lapatinib was added to reach a final concentration of 1 μM). The incubation was carried out at 37° C. for 72 h.
(§4) To each well, 50 μL ATPlite kit substrate solution was added. The plate was under shaking for 3 min, and was then placed in dark for 10 min. The lysis supernatant was drawn at 100 μL/well, and placed in a luminescent plate. The incubated luminescent plate was placed in an iluminescence apparatus, and the iluminescent value was read.
(§5) Data Processing Cell survival rate (%)=Experimental group RLU/control group RLU×100%
(§6) Coefficient of drug interaction (CDI) is used to evaluate the interaction of two drugs, CDI is calculated in accordance with the following formula: CDI=AB/(A×B)×100%. The calculation is performed according to the number of live cells (luminescent value), if CDI<1, the two drugs have a synergistic effect; if CDI<0.7, the synergistic effect is very significant; if CDI=1, the effect of the two drugs in combination is the sum of the effects of the two drugs; if CDI>1, the two drugs have an antagonistic effect.

[3] = system: MDA-MB-453; test: as above; format: cell-based; design: key: CDI = AB/(A×B); <1 synergistic; settings: compound 5 μM + Lapatinib 1 μM, 72 h; natural Lapatinib-resistant human breast cancer cells; CDI<1 synergistic
Description: as §1, §2, §3, §4, §5, §6

[4] = system: SK-BR3; test: as above; format: cell-based; design: key: CDI = AB/(A×B); <1 synergistic; settings: compound 5 μM + Lapatinib 1 μM, 72 h; Lapatinib-sensitive human breast cancer cells; CDI<1 synergistic
Description: as §1, §2, §3, §4, §5, §6

[5] = system: BT474; test: as above; format: cell-based; design: key: CDI = AB/(A×B); <1 synergistic; settings: compound 5 μM + Lapatinib 1 μM, 72 h; Lapatinib-sensitive human breast cancer cells; CDI<1 synergistic, <0.7 very significant, >1 antagonistic
Description: as §1, §2, §3, §4, §5, §6

[6] = system: SK/Lap^R1.0; test: as above; format: cell-based; settings: compound 5 μM + Lapatinib 1 μM, 72 h; secondary Lapatinib-resistant human breast cancer cells; CDI<1 synergistic
Description: as §1, §2, §3, §4, §5, §6

[7] = system: BT/Lap^R1.0; test: as above; format: cell-based; settings: compound 5 μM + Lapatinib 1 μM, 72 h; secondary Lapatinib-resistant human breast cancer cells; CDI<1 synergistic
Description: as §1, §2, §3, §4, §5, §6

Structure (SMILES) | inhibition at 200 µM [1] [%] | CDI of example compounds and Lapatinib, MDA-MB-361 [2] | CDI of example compounds and Lapatinib, MDA-MB-453 [3] | CDI of example compounds and Lapatinib, SK-BR3 [4] | CDI of example compounds and Lapatinib, BT474 [5] | CDI of example compounds and Lapatinib, SK/Lap^R1.0 [6] | CDI of example compounds and Lapatinib, BT/Lap^R1.0 [7]
Cc1ccccc1NC(=S)NC(CC(C)(C)C)NC(=O)/C=C/c1ccccc1 (centres unmarked) [Example 46, N-[3,3-dimethyl-1-(3-o-methylphenylthioureido)butyl] cinnamamide] | 41 | 0.94 | 1.64 | 1.29 | 0.74 | 1.25 | 0.79
Cc1ccccc1NC(=S)NC(CC(C)C)NC(=O)/C=C/c1ccccc1 (centres unmarked) [Example 47, N-[3-methyl-1-(3-o-methylphenylthioureido)butyl] cinnamamide] | 61.3 | 1.05 | 1.39 | 1.15 | 0.84 | 0.98 | 0.97
Cc1ccccc1NC(=S)NC(NC(=O)/C=C/c1ccccc1)C(C)(C)C (centres unmarked) [Example 48, N-[2,2-dimethyl-1-(3-o-methylphenylthioureido)propyl] cinnamamide] | -0.88 | 1.15 | 1.2 | 1.15 | 0.92 | 0.99 | 0.96
Cc1ccccc1NC(=S)NC(NC(=O)/C=C/c1ccccc1)C1CC1 (centres unmarked) [Example 49, N-[cyclopropyl-(3-o-methylphenylthioureido)-methyl] cinnamamide] | 65.4 | 0.95 | 1.2 | 1.08 | 0.9 | 0.99 | 0.96
CC(C)CC(NC(=O)/C=C/c1ccccc1)NC(=S)NC1CCCCC1 (centres unmarked) [Example 54, N-[1-(3-cyclohexylthioureido)-3-methylbutyl] cinnamamide] | 58.4 | 0.9 | 1.2 | 1.16 | 0.77 | 1.14 | 0.98
CC(C)C(NC(=O)/C=C/c1ccccc1)NC(=S)NC1CCCCC1 (centres unmarked) [Example 55, N-[1-(3-cyclohexylthioureido)-2-methylpropyl] cinnamamide] | 25.9 | 0.94 | 1.41 | 1.2 | 0.89 | 1.8 | 1.01
CC(C)(C)C(NC(=O)/C=C/c1ccccc1)NC(=S)NC1CCCCC1 (centres unmarked) [Example 56, N-[1-(3-cyclohexylthioureido)-2,2-dimethylpropyl] cinnamamide] | 21.4 | 0.96 | 1.32 | 1.19 | 0.77 | 1 | 1.21

Now from value to molecule, other results behind:

inhibition at 200 µM [1] [%] | Structure (SMILES) | CDI of example compounds and Lapatinib, MDA-MB-361 [2] | CDI of example compounds and Lapatinib, MDA-MB-453 [3] | CDI of example compounds and Lapatinib, SK-BR3 [4] | CDI of example compounds and Lapatinib, BT474 [5] | CDI of example compounds and Lapatinib, SK/Lap^R1.0 [6] | CDI of example compounds and Lapatinib, BT/Lap^R1.0 [7]
28.8 | COc1ccc(NC(=S)NC(NC(=O)/C=C/c2cc(OC)c(OC)c(OC)c2)C(C)C)cc1 (centres unmarked) [Example 50, (2E)-N-{1-[3-(4-methoxyphenyl)thioureido]-2-methylpropyl}-3-(3,4,5-trimethoxyphenyl) acrylamide] | 0.97 | 1.4 | 1.06 | 1.02 | 0.96 | 1.02
46.2 | COc1cc(/C=C/C(=O)NC(CC(C)C)NC(=S)NC2CCCCC2)cc(OC)c1OC (centres unmarked) [Example 51, (2E)-N-[1-(3-cyclohexylthioureido)-3-methylbutyl]-3-(3,4,5-trimethoxyphenyl) acrylamide] | 1.09 | 1.27 | 0.96 | 0.73 | 1.38 | 0.94
35.8 | COc1cc(/C=C/C(=O)NC(NC(=S)NC2CCCCC2)C(C)(C)C)cc(OC)c1OC (centres unmarked) [Example 52, (2E)-N-[1-(3-cyclohexylthioureido)-2,2-dimethylpropyl]-3-(3,4,5-trimethoxyphenyl) acrylamide] | 0.92 | 1.18 | 0.88 | 0.56 | 1.11 | 0.86
24.4 | COc1cc(/C=C/C(=O)NC(NC(=S)NC2CCCCC2)C(C)C)cc(OC)c1OC (centres unmarked) [Example 53, (2E)-N-[1-(3-cyclohexylthioureido)-2-methylpropyl]-3-(3,4,5-trimethoxyphenyl) acrylamide] | 1.19 | 1.33 | 0.97 | 0.82 | 1.23 | 0.8
